Key:
Staphylococcus aureus = experiment: MIC assay (microdilution); assay type: cell-based
[1] = tested on: Staphylococcus epidermidis; experiment: MIC assay (microdilution); assay type: cell-based
Streptococcus pyogenes = experiment: MIC assay (microdilution); assay type: cell-based
Streptococcus pneumoniae = experiment: MIC assay (microdilution); assay type: cell-based; conditions: lactate solutions, nanocrystalline silver: range for 12 samples
Pseudomonas aeruginosa = experiment: MIC assay (microdilution); assay type: cell-based
Burkholderia multivorans = experiment: MIC assay (microdilution); assay type: cell-based
Burkholderia dolosa = experiment: MIC assay (microdilution); assay type: cell-based
Citrobacter freundii = experiment: MIC assay (microdilution); assay type: cell-based; conditions: C. freundii NP410
Enterobacter cloacae = experiment: MIC assay (microdilution); assay type: cell-based; conditions: Enterobacter cloacae
Klebsiella pneumoniae = experiment: MIC assay (microdilution); assay type: cell-based
Proteus mirabilis = experiment: MIC assay (microdilution); assay type: cell-based; conditions: Prot. mirabilis NP405
Serratia marcescens = experiment: MIC assay (microdilution); assay type: cell-based
Escherichia coli = experiment: MIC assay (microdilution); assay type: cell-based
[2] = tested on: Mycobacterium tuberculosis H37Ra; assay type: cell-based
Staph. aureus = experiment: Minimal bactericidal concentration (MBC) assay; assay type: cell-based, Staphylococcus aureus
Protocol: (§1) Minimal bactericidal concentration (MBC) assay—Overnight-grown MIC plates, prepared as described in Example 16, were evaluated to determine the MIC. Culture was then sampled from wells at and near the MIC using sterile inoculating loops, and transferred to fresh MHA plates to determine if viable bacteria remained. […] The MBC was determined as the well in the MIC plate which contained the lowest concentration of silver yielding no bacterial growth on the MHA plate.

Ps. aeruginosa = experiment: Minimal bactericidal concentration (MBC) assay; assay type: cell-based, Pseudomonas aeruginosa
Protocol: as §1

Strep. pyogenes = experiment: Minimal bactericidal concentration (MBC) assay; assay type: cell-based, Streptococcus pyogenes
Protocol: as §1

K. pneumoniae = experiment: Minimal bactericidal concentration (MBC) assay; assay type: cell-based, Klebsiella pneumoniae
Protocol: as §1

Ser. marcescens = experiment: Minimal bactericidal concentration (MBC) assay; assay type: cell-based, Serratia marcescens
Protocol: as §1

E. coli = experiment: Minimal bactericidal concentration (MBC) assay; assay type: cell-based, Escherichia coli
Protocol: as §1

Prot. mirabilis = experiment: Minimal bactericidal concentration (MBC) assay; assay type: cell-based, Proteus mirabilis; conditions: Prot. mirabilis NP405
Protocol: as §1

C. freundii = experiment: Minimal bactericidal concentration (MBC) assay; assay type: cell-based, Citrobacter freundii; conditions: C. freundii NP410
Protocol: as §1

B. multivorans = experiment: Minimal bactericidal concentration (MBC) assay; assay type: cell-based, Burkholderia multivorans
Protocol: as §1

B dolosa = experiment: Minimal bactericidal concentration (MBC) assay; assay type: cell-based, Burkholderia dolosa
Protocol: as §1

Staph epidermidis = experiment: Minimal bactericidal concentration (MBC) assay; assay type: cell-based, Staphylococcus epidermidis
Protocol: as §1

[3] = K. pneumoniae NP403, second entry
[4] = Ser. marcescens NP402, second entry
[5] = Ser. marcescens NP408, second entry

O=[N+]([O-])[O-].[Ag+] [AgNO3, silver nitrate]
1 parts silver per million: MIC (Pseudomonas aeruginosa; Ps. aeruginosa 9027) | MIC (Pseudomonas aeruginosa; Ps. aeruginosa NP201) | MIC (Pseudomonas aeruginosa; Ps. aeruginosa NP204) | MIC (Pseudomonas aeruginosa; Ps. aeruginosa NP206) | MIC (Klebsiella pneumoniae; K. pneumoniae NP406) | MIC (Escherichia coli; E. coli 43745) | MIC (Escherichia coli; E. coli NP412) | MBC (Ps. aeruginosa; Ps. aeruginosa NP206) | MBC (K. pneumoniae; K. pneumoniae NP406) | MBC (E. coli; E. coli NP412)
5 µg/mL: MIC (Staphylococcus aureus; lactate solutions, S. aureus (clin.), nanocrystalline silver: range for 12 samples) | MIC (Streptococcus pyogenes; lactate solutions, S. pyog (clin. 304), nanocrystalline silver: range for 12 samples)
13 parts silver per million: MBC (Prot. mirabilis)
3 ppm: MIC (Pseudomonas aeruginosa; P. aeruginosa NP212, formulation type Water/Lecithin) | MIC (Pseudomonas aeruginosa; P. aeruginosa NP212, formulation type Water/PVA) | MIC (Pseudomonas aeruginosa; P. aeruginosa NP214, Water/PVA)
3 µg/mL: MIC ([1]; lactate solutions, S. epiderm (ATCC), nanocrystalline silver: range for 12 samples) | MIC (Streptococcus pyogenes; lactate solutions, S. pyog (clin. 303), nanocrystalline silver: range for 12 samples) | MIC (Pseudomonas aeruginosa; lactate solutions, P. aerug (ATCC), nanocrystalline silver: range for 12 samples) | MIC (Pseudomonas aeruginosa; lactate solutions, P. aerug. (clin.), nanocrystalline silver: range for 12 samples) | MIC (Klebsiella pneumoniae; Klebsiella pneumoniae, aerobic +) | MIC (Klebsiella pneumoniae; Klebsiella pneumoniae, aerobic − (anaerobic)) | MIC (Escherichia coli; lactate solutions, E. coli (ATCC), nanocrystalline silver: range for 12 samples)
2.5 μg/ml silver: MIC [2]
11 µg/mL: MIC (Staphylococcus aureus; lactate solutions, S. aureus (ATCC), nanocrystalline silver: range for 12 samples) | MIC (Streptococcus pneumoniae; S. pneumo (clin 314))
13 µg/mL: MIC (Enterobacter cloacae; aerobic +) | MIC (Serratia marcescens; Serratia marcescens, aerobic − (anaerobic))
10 parts silver per million: MBC (Strep. pyogenes; Strep. pyogenes NP303)
11 ppm: MIC (Staphylococcus aureus; Staph aureus NP101, Water/Lecithin) | MIC (Staphylococcus aureus; Staph aureus NP101, Water/PVA) | MIC (Staphylococcus aureus; Staph aureus NP102, Water/Lecithin) | MIC (Staphylococcus aureus; Staph aureus NP102, Water/PVA) | MIC (Staphylococcus aureus; Staph aureus NP103, Water/Lecithin) | MIC (Staphylococcus aureus; Staph aureus NP103, Water/PVA)
6 parts silver per million: MIC (Staphylococcus aureus; Staph. aureus 6538) | MIC (Staphylococcus aureus; Staph. aureus NP101) | MIC (Staphylococcus aureus; Staph. aureus NP102) | MIC (Staphylococcus aureus; Staph. aureus NP103) | MIC (Streptococcus pyogenes; Strep. pyogenes NP304) | MIC (Streptococcus pyogenes; Strep. pyogenes NP306) | MIC (Klebsiella pneumoniae; K. pneumoniae NP403) | MIC (Klebsiella pneumoniae; [3]) | MIC (Proteus mirabilis) | MIC (Serratia marcescens; Ser. marcescens NP402) | MIC (Serratia marcescens; [4]) | MIC (Serratia marcescens; Ser. marcescens NP408) | MBC (Staph. aureus; Staph. aureus 6538) | MBC (Staph. aureus; Staph. aureus 700699) | MBC (Staph. aureus; Staph. aureus NP102) | MBC (Staph. aureus; Staph. aureus NP103) | MBC (K. pneumoniae; K. pneumoniae NP403) | MBC (Ser. marcescens; Ser. marcescens NP402) | MBC (Ser. marcescens; [4]) | MBC (Ser. marcescens; Ser. marcescens NP408)
11 parts silver per million: MIC (Serratia marcescens; [5]) | MBC (Staph. aureus; Staph. aureus NP101) | MBC (Ser. marcescens; [5])
0.4 parts silver per million: MIC (Escherichia coli; E. coli 8739) | MBC (E. coli; E. coli 8739) | MBC (E. coli; E. coli 43745)
1 ppm: MIC (Pseudomonas aeruginosa; P. aeruginosa NP213, Lactate) | MIC (Pseudomonas aeruginosa; P. aeruginosa NP213, Water/Lecithin) | MIC (Pseudomonas aeruginosa; P. aeruginosa NP213, Water/PVA) | MIC (Pseudomonas aeruginosa; P. aeruginosa NP214, Lactate) | MIC (Pseudomonas aeruginosa; P. aeruginosa NP214, Water/Lecithin)
21 parts silver per million: MBC (Strep. pyogenes; Strep. pyogenes NP304) | MBC (Strep. pyogenes; Strep. pyogenes NP306)
2 ppm: MIC (Pseudomonas aeruginosa; P. aeruginosa NP212, formulation type Lactate)
21 µg/mL: MIC (Streptococcus pneumoniae; S. pneumo (clin 315))
6 µg/mL: MIC (Serratia marcescens; Serratia marcescens, aerobic +)
25 µg/mL: MIC (Enterobacter cloacae; aerobic − (anaerobic))
9 ppm: MIC (Staphylococcus aureus; Staph aureus NP101, Lactate) | MIC (Staphylococcus aureus; Staph aureus NP102, Lactate) | MIC (Staphylococcus aureus; Staph aureus NP103, Lactate)
3 parts silver per million: MIC (Staphylococcus aureus; Staph. aureus 700699) | MIC ([1]; Staph epidermidis 12228) | MIC ([1]; Staph epidermidis NP136) | MIC (Streptococcus pyogenes; Strep. pyogenes NP303) | MIC (Burkholderia multivorans; B. multivorans B1) | MIC (Burkholderia multivorans; B. multivorans B2) | MIC (Citrobacter freundii) | MIC (Klebsiella pneumoniae; K. pneumoniae NP401) | MBC (Ps. aeruginosa; Ps. aeruginosa 27317) | MBC (Ps. aeruginosa; Ps. aeruginosa NP201) | MBC (Ps. aeruginosa; Ps. aeruginosa NP204) | MBC (K. pneumoniae; K. pneumoniae NP401) | MBC (K. pneumoniae; [3]) | MBC (C. freundii) | MBC (B. multivorans; B. multivorans B1) | MBC (B. multivorans; B. multivorans B2) | MBC (B. multivorans; B. multivorans B4) | MBC (B dolosa; B dolosa A3) | MBC (Staph epidermidis; Staph epidermidis 12228) | MBC (Staph epidermidis; Staph epidermidis NP136)
2 parts silver per million: MIC (Pseudomonas aeruginosa; Ps. aeruginosa 27317) | MIC (Burkholderia multivorans; B. multivorans B4) | MIC (Burkholderia dolosa; B dolosa A3) | MIC (Burkholderia dolosa; B dolosa A4) | MBC (B dolosa; B dolosa A4)

— patent publication US20080014278A1, “METAL-CONTAINING FORMULATIONS AND METHODS OF USE” (priority 2006, published 2008)
